Assay results as given in patent US8026362B2, “Non-nucleoside reverse transcriptase inhibitors” (Roche Palo Alto LLC, priority 2007, dated 2011).

What was measured:
HIV-1 RT = HIV-1 RT (Human immunodeficiency virus type 1 group M subtype B, UniProt P04585); test: HIV-1 Reverse Transcriptase Assay (RNA-dependent DNA polymerase activity, SPA); format: biochemical; settings: 30° C., 30 min, 10% DMSO
Description: RNA-dependent DNA polymerase activity was measured using a biotinylated primer oligonucleotide and tritiated dNTP substrate. Newly synthesized DNA was quantified by capturing the biotinylated primer molecules on streptavidin coated Scintillation Proximity Assay (SPA) beads (Amersham). The sequences of the polymerase assay substrate were: 18 nt DNA primer, 5′-Biotin/GTC CCT GTT CGG GCG CCA-3′; 47 nt RNA template, 5′-GGGUCUCUCUGGUUAGACCACUCUAGCAGUGGCGCCCGAACAGGGAC-3′. The biotinylated DNA primer was obtained from the Integrated DNA Technologies Inc. and the RNA template was synthesized by Dharmacon. The DNA polymerase assay (final volume 50 μl) contained 32 nM biotinylated DNA primer, 64 nM RNA substrate, dGTP, dCTP, dTTP (each at 5 μM), 103 nM [^3H]-dATP (specific activity=[…]), in 45 mM Tris-HCl, pH 8.0, 45 mM NaCl, 2.7 mM Mg(CH3COO)2, 0.045% Triton X-100 w/v, 0.9 mM EDTA. The reactions contained 5 ul of serial compound dilutions in 100% DMSO for IC50 determination and the final concentrations of DMSO were 10%. Reactions were initiated by the addition of 30 μl of the HIV-RT enzyme (final concentrations of 1-3 nM). Protein concentrations were adjusted to provide linear product formation for at least 30 min of incubation. After incubation at 30° C. for 30 min, the reaction was quenched by addition of 50 μl of 200 mM EDTA (pH 8.0) and […] SA-PVT SPA beads (Amersham, RPNQ0009, reconstituted in 20 mM Tris-HCl, pH 8.0, 100 mM EDTA and 1% BSA). The beads were left to settle overnight and the SPA signals were counted in a 96-well top counter-NXT (Packard).

[1] = tested on: HXB2-strain of HIV in MT4 cells; test: Antiviral assay: protection of HIV-infected MT4 cells from cell death (MTT); format: cell-based; settings: Human immunodeficiency virus 1, 120 h; MT4 cells infected with HXB2-strain of HIV, 5 days, MTT viability
Description: Anti-HIV antiviral activity was assessed using an adaptation of the method of Pauwels et al. {Pauwels et al., J Virol Methods 1988 20:309-321}. The method is based on the ability of compounds to protect HIV-infected T lymphoblastoid cells (MT4 cells) from cell-death mediated by the infection. The endpoint of the assay was calculated as the concentration of compound at which the cell viability of the culture was preserved by 50% (‘50% inhibitory concentration’, IC50). The cell viability of a culture was determined by the uptake of soluble, yellow 3-[4,5-dimethylthiazol-2-yl]-2,5-diphenyltetrazolium bromide (MTT) and its reduction to a purple insoluble formazan salt. After solubilization, spectrophotometric methods were employed to measure the amount of formazan product. […]
A fresh solution of 5 mg/mL MTT was prepared in 0.01 M phosphate buffered saline, pH 7.2 and 20 microliters added to each culture. […] When the formazan deposit was fully solubilized by further mixing, the absorbance (OD) of the cultures was measured at 540 nm and 690 nm wavelength (690 nm readings were used as blanks for artifacts between wells). The percent protection for each treated culture was then calculated from the equation: […]

| Structure (SMILES) | melting point [°C] | IC50 (HIV-1 RT) [nM] | IC50 [1] [nM] |
| --- | --- | --- | --- |
| N#Cc1cc(C#N)cc(Oc2c(Br)ccc(Cn3ccc(=O)[nH]c3=O)c2F)c1 [Compound I-11, 5-[6-Bromo-3-(2,4-dioxo-3,4-dihydro-2H-pyrimidin-1-ylmethyl)-2-fluoro-phenoxy]-isophthalonitrile] | 132 to 133 | 22.9 | – |
| N#Cc1cc(Cl)cc(Oc2c(Br)ccc(Cn3ccc(=O)[nH]c3=O)c2F)c1 [Compound I-3, 3-[6-Bromo-3-(2,4-dioxo-3,4-dihydro-2H-pyrimidin-1-ylmethyl)-2-fluoro-phenoxy]-5-chloro-benzonitrile] | 229 to 230.5 | 3.6 | – |
| Cc1cn(Cc2ccc(Br)c(Oc3cc(Cl)cc(C#N)c3)c2F)c(=O)[nH]c1=O [Compound I-2, 3-[6-Bromo-2-fluoro-3-(5-methyl-2,4-dioxo-3,4-dihydro-2H-pyrimidin-1-ylmethyl)-phenoxy]-5-chloro-benzonitrile] | 223.1 to 224.2 | 3.9 | 3.1 |
| CCc1ccc(Cn2cc(C)c(=O)[nH]c2=O)c(F)c1Oc1cc(Cl)cc(C#N)c1 [Compound I-25, 3-Chloro-5-[6-ethyl-2-fluoro-3-(5-methyl-2,4-dioxo-3,4-dihydro-2H-pyrimidin-1-ylmethyl)-phenoxy]-benzonitrile] | 180.5 to 181.5 | 1.8 | – |
| Cc1cn(Cc2ccc(Br)c(Oc3cc(C#N)cc(C#N)c3)c2F)c(=O)[nH]c1=O [Compound I-8, 5-[6-Bromo-2-fluoro-3-(5-methyl-2,4-dioxo-3,4-dihydro-2H-pyrimidin-1-ylmethyl)-phenoxy]-isophthalonitrile] | 235.6 to 236 | 4.3 | – |
| Cc1cn(Cc2ccc(Br)c(Oc3cc(C#N)cc(C(F)F)c3)c2F)c(=O)[nH]c1=O [Compound I-27, 3-[6-Bromo-2-fluoro-3-(5-methyl-2,4-dioxo-3,4-dihydro-2H-pyrimidin-1-ylmethyl)-phenoxy]-5-difluoromethyl-benzonitrile] | 232.3 to 234.8 | 3.3 | – |
| N#Cc1cc(Cl)cc(Oc2c(Cl)ccc(Cn3cc(Cl)c(=O)[nH]c3=O)c2F)c1 [Compound I-18, 3-Chloro-5-[6-chloro-3-(5-chloro-2,4-dioxo-3,4-dihydro-2H-pyrimidin-1-ylmethyl)-2-fluoro-phenoxy]-benzonitrile] | 267.2 to 268 | 3.7 | – |
| N#Cc1cc(Cl)cc(Oc2c(Br)ccc(Cn3cc(C(F)(F)F)c(=O)[nH]c3=O)c2F)c1 [Compound I-7, 3-[6-Bromo-3-(2,4-dioxo-5-trifluoromethyl-3,4-dihydro-2H-pyrimidin-1-ylmethyl)-2-fluoro-phenoxy]-5-chloro-benzonitrile] | 110 to 112 | 6 | – |
| Cc1cn(CCc2ccc(Br)c(Oc3cc(Cl)cc(C#N)c3)c2F)c(=O)[nH]c1=O [Compound I-14, 3-{6-Bromo-2-fluoro-3-[2-(5-methyl-2,4-dioxo-3,4-dihydro-2H-pyrimidin-1-yl)-ethyl]-phenoxy}-5-chloro-benzonitrile] | 198 to 200 | 7 | – |
| N#Cc1cc(Cl)cc(Oc2c(Br)ccc(Cn3cc(CO)c(=O)[nH]c3=O)c2F)c1 [Compound I-24, 3-[6-Bromo-2-fluoro-3-(5-hydroxymethyl-2,4-dioxo-3,4-dihydro-2H-pyrimidin-1-ylmethyl)-phenoxy]-5-chloro-benzonitrile] | 226 to 227 | 11.1 | – |
| Cc1cn(Cc2ccc(Cl)c(Oc3cc(Cl)cc(C#N)c3)c2F)c(=O)[nH]c1=O [Compound I-17, 3-Chloro-5-[6-chloro-2-fluoro-3-(5-methyl-2,4-dioxo-3,4-dihydro-2H-pyrimidin-1-ylmethyl)-phenoxy]-benzonitrile] | 226 to 227.5 | 3.1 | – |
| N#Cc1cc(Cl)cc(Oc2c(Br)ccc(CN3CC(=O)NC3=S)c2F)c1 [Compound I-28, 3-[6-Bromo-2-fluoro-3-(4-oxo-2-thioxo-imidazolidin-1-ylmethyl)-phenoxy]-5-chloro-benzonitrile] | 172 to 173 | 86 | – |
| N#Cc1cc(Cl)cc(Oc2c(Br)ccc(Cn3cc(Cl)c(=O)[nH]c3=O)c2F)c1 [Compound I-4, 3-[6-Bromo-3-(5-chloro-2,4-dioxo-3,4-dihydro-2H-pyrimidin-1-ylmethyl)-2-fluoro-phenoxy]-5-chloro-benzonitrile] | 260.8 to 261.7 | 4.1 | – |
| Cn1cc(Cc2ccc(Br)c(Oc3cc(Cl)cc(C#N)c3)c2F)c(=O)[nH]c1=O [Compound I-31, 3-[6-Bromo-2-fluoro-3-(1-methyl-2,4-dioxo-1,2,3,4-tetrahydro-pyrimidin-5-ylmethyl)-phenoxy]-5-chloro-benzonitrile] | 226 to 227 | 5.9 | – |
| N#Cc1cc(Cl)cc(Oc2c(Br)ccc(Cn3ccc(N)nc3=O)c2F)c1 [Compound I-12, 3-[3-(4-Amino-2-oxo-2H-pyrimidin-1-ylmethyl)-6-bromo-2-fluoro-phenoxy]-5-chloro-benzonitrile] | 240 to 245 | 148 | – |
| N#Cc1cc(Cl)cc(Oc2c(Br)ccc(CN3CC(=O)NC3=O)c2F)c1 [Compound I-20, 3-[6-Bromo-3-(2,4-dioxo-imidazolidin-1-ylmethyl)-2-fluoro-phenoxy]-5-chloro-benzonitrile] | 131.5 to 132.8 | 9 | 4.2 |
| C=CCC1C(=O)NC(=O)N1Cc1ccc(Br)c(Oc2cc(Cl)cc(C#N)c2)c1F (stereo not drawn) [Compound I-22, 3-[3-(5-Allyl-2,4-dioxo-imidazolidin-1-ylmethyl)-6-bromo-2-fluoro-phenoxy]-5-chloro-benzonitrile] | 200 to 201 | 1000 | – |
| N#Cc1cc(C#N)cc(Oc2c(Br)ccc(Cn3cc(Cl)c(=O)[nH]c3=O)c2F)c1 [Compound I-9, 5-[6-Bromo-3-(5-chloro-2,4-dioxo-3,4-dihydro-2H-pyrimidin-1-ylmethyl)-2-fluoro-phenoxy]-isophthalonitrile] | 255 to 255.6 | 5.2 | – |
| Cc1cn(Cc2ccc(Br)c(Oc3cc(Cl)cc(C#N)c3)c2F)c(=O)nc1N [Compound I-13, 3-[3-(4-Amino-5-methyl-2-oxo-2H-pyrimidin-1-ylmethyl)-6-bromo-2-fluoro-phenoxy]-5-chloro-benzonitrile] | 262.7 to 263.7 | 19.6 | – |
| N#Cc1cc(Cl)cc(Oc2c(Br)ccc(Cn3cc(F)c(=O)[nH]c3=O)c2F)c1 [Compound I-6, 3-[6-Bromo-2-fluoro-3-(5-fluoro-2,4-dioxo-3,4-dihydro-2H-pyrimidin-1-ylmethyl)-phenoxy]-5-chloro-benzonitrile] | 234 to 236 | 2.2 | – |
